{"source": "patent US12514859B2", "about": "“Pyrazole pyrimidine derivative and uses thereof” (Yissum Research Development Company of the Hebrew …, priority 2015, dated 2026)", "key": {"IRAK1/4": {"test_system": "IRAK1/4", "details": "10 μM; cited from earlier work"}, "[1]": {"test_system": "p53, DNA damage response (γH2AX)", "assay": "p53 and DNA damage response activation in RKO cells (Western blot, primary screen and dose response)", "type": "cell-based", "details": "16 hours, Western blot, average value", "description": "(§1) Primary Screen in RKO cells for compounds having typical CKIα inhibitory activity (β-catenin and p53 stabilization and histone H2AX phosphorylation; see Elyada et al, Nature 2011 Feb. 17; 470(7334):409-13; Pribluda et al, Cancer Cell 2013 Aug. 12; 24(2):242-56). RKO colorectal cells were incubated with 10 μM of each of the compounds for 16 hours at 37° C. Cells were washed with PBS and cell pellets were incubated with ice cold protein lysis buffer containing protease inhibitor cocktail (1/200; Calbiochem) and phosphatase inhibitors (20 mM p-nitrophenyl phosphate (PNPP), 20 mM β-glycerophosphate and 300 nM okadaic acid). Western blot analysis was performed by means of standard techniques. Blots were incubated with antibodies detecting β-catenin (1/2,500; BD Transduction), p53 (DO-1&1801 hybridoma mix; dilution of 1:20 of supernatants from each), CKIα (C-19; 1/1,000; Santa Cruz Biotechnology) and phospho-histoneH2AX (S139; 1/1,000; Millipore). Secondary antibodies were HRP-linked goat anti-mouse, goat anti-rabbit and rabbit anti-goat antibodies (all 1/10,000; Jackson). Blots were developed using ECL (GE Healthcare).\n(§2) Active compounds were further analyzed in a dose-response experiment (FIGS. 1A and 1B). Similar to the primary screen, RKO cells were incubated with descending concentrations of each of the active compounds for 16 hours at 37° C. Cell extract isolation and Western Blot analysis were similar to the primary screen.\n(§3) Table 1 provides quantified information for compounds of the invention in activation of p53 and DNA damage response (DDR) and β-catenin stabilization as an indicator of Wnt pathway activation. p53 activation was determined according to the degree of protein stabilization in several Western blot assays (Western blot examples are shown in FIGS. 1A and 1B). […] In contrast, A35 started stabilizing p53 at […], with maximal stabilization at […] (FIG. 1A, upper right panel) and thus received an average value of +++ for p53 activation."}, "Wnt/β-catenin": {"test_system": "Wnt/β-catenin", "assay": "β-catenin stabilization (Wnt pathway activation) in RKO cells (Western blot)", "type": "cell-based", "details": "16 hours, Western blot", "description": "as §1, §2, §3"}, "AML mice (MLL-AF9)": {"test_system": "AML mice (MLL-AF9)", "assay": "MLL-AF9 acute myeloid leukemia (AML) mouse model", "type": "in vivo", "description": "Generation of a mouse model of acute myeloid leukemia (AML) (FIG. 6) and treatment with the CKIα inhibitor A14 (FIGS. 7, 8 and 9) or A51 (FIGS. 11 and 12). To generate the MLL-AF9 Acute myeloid leukemia (AML) model, bone marrow (BM) cells from 10 week old wild type mouse were extracted and enriched for cKit expressing cells (EasySep #18757) and incubated overnight in RPMI supplemented with 15% FCS L-Glutamine, Pen/Strep (Biological Industries, Israel) and stem cell factor (SCF), IL-3, IL-6 and TPO (Peprotech). The culture was infected with MSCV-MLL-AF9-IRES-GFP retrovirus construct containing supernatant medium for 4 hours, then growth medium was added and infected cells were incubated at 37° C. for additional 24 h. The culture was then injected I.V. into sub lethally irradiated (500 rad) mice. Upon detectable steady increase of GFP expressing cells in the mice peripheral blood (checked by FACS analysis) and rise in leukocyte numbers and immature cells (detected by Wright-Giemsa stained blood films), mice were sacrificed and their BM was transferred (1st BMT) to sublethally irradiated WT hosts. Upon emergence of AML disease mice were sacrificed and 50,000 BM cells were transplanted (2nd BMT) into WT host mice. GFP expressing cells were monitored in the peripheral blood and upon detecting >10% GFP^+ in PB (day 11 after BMT) mice were treated with A14 inhibitor (FIG. 7A). A14 was administered by oral gavage once a day at a dose of 20 mg/kg for 3 days followed by 10 mg/kg/day for 6 more days. The inhibitor was dissolved in 1% methyl cellulose with 0.1% Tween 80 and 0.2% Poly-ethylene glycol (Vehicle). Control mice were treated with the vehicle only. Mice were monitored daily for cachexia, lethargy, and ruff coats, and moribund mice were sacrificed. For a single dose experiment (FIG. 11A) A51 was administered by oral gavage at a single dose of 20 mg/kg and mice were sacrificed 16 hours following treatment.\nComplete blood counts. Peripheral venous blood was obtained from the mouse facial vein using standard techniques and analyzed using the auto hematology analyzer BC-2800 (Mindray) per manufacturer's instructions.\nSingle-dose treatment effect of a CKI inhibitor in AML mice and PD-L1 expression. AML mice were prepared by inoculating MLL-AF9 oncogene-transduced bone marrow cells to C57/BL6 mice. MLL-AF9 fusion represents one of a poor prognosis human AML induced by chromosomal translocation. 30 days after leukemia inoculation, the recipient mice have high white blood cells (WBC) counts (×10 higher than a normal mouse), and harbor >95% leukemia blasts in the bone marrow and 50% of the peripheral WBC in these mice are AML blasts. These mice have splenomegaly and their bones are pale and fragile due to the acute leukemia (FIG. 12)."}, "IRAK1 [2]": {"target": "T1, IRAK1 (Homo sapiens, UniProt P51617)", "T1 construct": "RKO cells were incubated for 16 hours at 37° C. with the indicated concentrations of compounds; endogenous in cells; host or cells: RKO cells, stimulated with TNFα", "T1 sequence (P51617 whole entry)": "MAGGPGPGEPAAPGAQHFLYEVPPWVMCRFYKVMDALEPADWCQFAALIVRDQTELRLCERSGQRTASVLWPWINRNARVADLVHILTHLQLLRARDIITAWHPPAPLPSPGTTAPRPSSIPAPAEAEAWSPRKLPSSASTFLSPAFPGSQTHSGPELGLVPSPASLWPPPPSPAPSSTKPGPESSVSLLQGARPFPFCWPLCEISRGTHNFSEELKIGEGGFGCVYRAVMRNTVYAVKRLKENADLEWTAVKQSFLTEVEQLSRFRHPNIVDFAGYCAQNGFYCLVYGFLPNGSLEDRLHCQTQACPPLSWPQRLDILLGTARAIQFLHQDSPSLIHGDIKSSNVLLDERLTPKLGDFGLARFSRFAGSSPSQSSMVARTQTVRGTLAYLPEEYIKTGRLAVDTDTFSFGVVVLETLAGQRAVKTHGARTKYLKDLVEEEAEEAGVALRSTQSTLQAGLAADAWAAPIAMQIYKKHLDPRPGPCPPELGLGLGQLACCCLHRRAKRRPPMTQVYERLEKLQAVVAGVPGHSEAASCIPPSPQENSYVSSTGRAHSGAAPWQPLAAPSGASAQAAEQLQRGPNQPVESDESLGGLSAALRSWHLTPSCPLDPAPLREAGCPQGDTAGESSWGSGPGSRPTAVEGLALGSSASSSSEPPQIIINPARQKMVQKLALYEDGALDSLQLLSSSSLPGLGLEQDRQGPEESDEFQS", "assay": "Kd measurements for the interaction with IRAK1", "type": "binding"}, "IRAK1 [3]": {"target": "T1, IRAK1", "assay": "IRAK1 inhibition in RKO cells treated with TNFα (Western blot)", "type": "cell-based", "description": "(§4) Cells were harvested and analyzed by Western blot. Blots were incubated with the following antibodies: Phospho-IRAK1 (Thr209), (A1074, AssayBiothechnology; 1/1,000), Phospho-IKKα/β (Ser176/180) (16A6, Cell Signaling; 1/1,000), IKKα (2682, cell signaling; 1/1,1000), IKK β (2370, cell signaling; 1/1,1000), Phospho-c-Jun (Ser 63) (9261, cell signaling; 1/1,1000), p53 (DO-1&1801 hybridoma mix; dilution of 1:20 of supernatants from each), CKIα (C-19; 1/1,000; Santa Cruz Biotechnology) and phospho-histoneH2AX (S139; 1/1,000; Millipore). Secondary antibodies were HRP-linked goat anti-mouse, goat anti-rabbit and rabbit anti-goat antibodies (all 1/10,000; Jackson). Inhibition of Phospho-IRAK1, Phospho-IKKα/β and Phospho-c-Jun indicate IRAK1 inhibition. p53 stabilization and phosphorylation of H2AX (γH2AX), a marker of DNA damage, indicative of CKIα kinase inhibition. CKIα protein levels serves as a loading control.\nas §4, with “IRAK1 Inhibition with compounds of the invention. RKO cells were incubated for 16 hours at 37° C. with the indicated concentrations of compounds of the invention A51 (1 μM) and A14 (2 μM) (FIG. 10). At the indicated time points, RKO were treated with TNFα (100 units/ml). Cells” for “Cells”, “IKKβ” for “IKK β”, “Blots were developed using ECL (GE Healthcare). […] Also shown is” for “Inhibition of Phospho-IRAK1, Phospho-IKKα/β and Phospho-c-Jun indicate IRAK1 inhibition.”"}, "[4]": {"details": "oral single dose 20 mg/Kg, 16 hrs"}}}
{"smiles": "O=C(Nc1nc2ccccc2n1CCN1CCOCC1)c1cccc([N+](=O)[O-])c1", "note": "[Amgen's IRAK1-4 inhibitor]", "values": [{"measurement": "inhibition of IRAK1/4 in cell lines", "setting": "IRAK1/4", "result": 70, "unit": "%"}]}
{"smiles": "Cn1ncc(-c2ccnc(N[C@H]3CC[C@H](N4CCOCC4)CC3)n2)c1CC1CC1", "note": "[Compound A48, 4-(5-(cyclopropylmethyl)-1-methyl-1H-pyrazol-4-yl)-N-((1r, 4r)-4-morpholinocyclohexyl)pyrimidin-2-amine]", "values": [{"measurement": "DDR & p53 activity", "setting": "[1]", "result": "+ (+ indicates low, yet significant activation at a compound concentration of 6 μM)"}, {"measurement": "β-Catenin activity", "setting": "Wnt/β-catenin", "result": "+ (+ indicates low, yet significant activation at a compound concentration of 6 μM)"}]}
{"smiles": "Cn1ncc(-c2nc(N[C@H]3CC[C@H](N)CC3)ncc2Cl)c1CC1CC1", "note": "[Compound A51, (1R, 4R)—N^1-(5-chloro-4-(5-(cyclopropylmethyl)-1-methyl-1H-pyrazol-4-yl)pyrimidin-2-yl)cyclohexane-1,4-diamine]", "values": [{"measurement": "leukemic spleen size (in words)", "setting": "AML mice (MLL-AF9); [4]", "result": "shrinking of the leukemic spleen"}, {"measurement": "reduction of proportion of leukemic blasts (GFP+ cells) in the blood", "setting": "AML mice (MLL-AF9); [4]", "result": "> 90", "unit": "%"}, {"measurement": "reduction of proportion of leukemic blasts (GFP+ cells) in the bone marrow", "setting": "AML mice (MLL-AF9); [4]", "result": 50, "unit": "%"}, {"measurement": "total leukemia cells in the blood (in words)", "setting": "AML mice (MLL-AF9); [4]", "result": "massive reduction"}, {"measurement": "bone colour (in words)", "setting": "AML mice (MLL-AF9); single dose 20 mg/Kg", "result": "Opaque bones turned to normal color"}, {"measurement": "DDR & p53 activity", "setting": "[1]", "result": "++++ (++++ indicates maximal activation of p53 and DDR at >0.5 μM)"}, {"measurement": "Kd", "setting": "IRAK1 [2]", "result": 2.9, "unit": "nM"}, {"measurement": "β-Catenin activity", "setting": "Wnt/β-catenin", "result": "+++ (+++ indicates maximal β-catenin or p53 stabilization at >2 μM)"}, {"measurement": "IRAK1 activation and activation of the IRAK1 target IKK (in words)", "setting": "IRAK1 [3]; RKO cells, Western blot, A51 1 μM, A14 2 μM, 16 hours, TNFα 100 units/ml", "result": "inhibition of IRAK1 activation"}, {"measurement": "inhibition at 1 µM", "setting": "IRAK1 [3]; RKO, read-out: inhibition of phospho-(active) IRAK1", "result": 100, "unit": "%"}]}
{"smiles": "CC(C)n1ncc(-c2ccnc(N[C@H]3CC[C@H](N)CC3)n2)c1CC1CCC1", "note": "[Compound A53, (1R,4R)—N^1-(4-(5-(cyclobutylmethyl)-1-isopropyl-1H-pyrazol-4-yl)pyrimidin-2-yl)cyclohexane-1,4-diamine]", "values": [{"measurement": "DDR & p53 activity", "setting": "[1]", "result": "+ (+ indicates low, yet significant activation at a compound concentration of 6 μM)"}, {"measurement": "β-Catenin activity", "setting": "Wnt/β-catenin", "result": "+ (+ indicates low, yet significant activation at a compound concentration of 6 μM)"}]}
{"smiles": "Cn1ncc(-c2nc(N[C@H]3CC[C@H](Nc4ccccc4)CC3)ncc2Cl)c1CC1CC1", "note": "[Compound A68, (1R,4R)—N^1-(5-chloro-4-(5-(cyclopropylmethyl)-1-methyl-1H-pyrazol-4-yl)pyrimidin-2-yl)-N^4-phenylcyclohexane-1,4-diamine]", "values": [{"measurement": "DDR & p53 activity", "setting": "[1]", "result": "+ (+ indicates low, yet significant activation at a compound concentration of 6 μM)"}, {"measurement": "β-Catenin activity", "setting": "Wnt/β-catenin", "result": "+ (+ indicates low, yet significant activation at a compound concentration of 6 μM)"}]}
{"smiles": "Cn1ncc(-c2nc(NC3CCC(NCc4cn[nH]c4)CC3)ncc2Cl)c1CC1CC1", "note": "[Compound A75, (1R,4R)—N^1-((1H-pyrazol-4-yl)methyl)-N^4-(5-chloro-4-(5-(cyclopropylmethyl)-1-methyl-1H-pyrazol-4-yl)pyrimidin-2-yl)cyclohexane-1,4-diamine]", "values": [{"measurement": "DDR & p53 activity", "setting": "[1]", "result": "+++++ (+++++ indicates maximal activation of p53 and DDR at >0.1 μM)"}, {"measurement": "β-Catenin activity", "setting": "Wnt/β-catenin", "result": "+++ (+++ indicates maximal β-catenin or p53 stabilization at >2 μM)"}]}
{"smiles": "Cn1ncc(-c2nc(NC3CCC(NCc4cn[nH]c4)CC3)ncc2F)c1CC1CC1", "note": "[Compound A85, (1R,4R)—N^1-((1H-pyrazol-4-yl)methyl)-N^4-(4-(5-(cyclopropylmethyl)-1-methyl-1H-pyrazol-4-yl)-5-fluoropyrimidin-2-yl)cyclohexane-1,4-diamine]", "values": [{"measurement": "DDR & p53 activity", "setting": "[1]", "result": "+++ (+++ indicates maximal β-catenin or p53 stabilization at >2 μM)"}, {"measurement": "β-Catenin activity", "setting": "Wnt/β-catenin", "result": "+++ (+++ indicates maximal β-catenin or p53 stabilization at >2 μM)"}]}
{"smiles": "Cn1ncc(-c2nc(NC3CCC(N)CC3)ncc2F)c1CC1CC1", "note": "[Compound A86, (1R,4R)—N^1-(4-(5-(cyclopropylmethyl)-1-methyl-1H-pyrazol-4-yl)-5-fluoropyrimidin-2-yl)cyclohexane-1,4-diamine]", "values": [{"measurement": "DDR & p53 activity", "setting": "[1]", "result": "+++++ (+++++ indicates maximal activation of p53 and DDR at >0.1 μM)"}, {"measurement": "β-Catenin activity", "setting": "Wnt/β-catenin", "result": "+++ (+++ indicates maximal β-catenin or p53 stabilization at >2 μM)"}]}
{"smiles": "Cn1ncc(-c2nc(N[C@H]3CC[C@H](NC(=O)c4cn[nH]c4)CC3)ncc2Cl)c1CC1CC1", "note": "[Compound A87, N-((1R,4R)-4-((5-chloro-4-(5-(cyclopropylmethyl)-1-methyl-1H-pyrazol-4-yl)pyrimidin-2-yl)amino)cyclohexyl)-1H-pyrazole-4-carboxamide]", "values": [{"measurement": "DDR & p53 activity", "setting": "[1]", "result": "+ (+ indicates low, yet significant activation at a compound concentration of 6 μM)"}, {"measurement": "β-Catenin activity", "setting": "Wnt/β-catenin", "result": "+++ (+++ indicates maximal β-catenin or p53 stabilization at >2 μM)"}]}
